For series [1], the target named is human H1 receptor (Homo sapiens, UniProt P35367). Kind of series: hH1 GTPgS: inhibition of agonist-induced stimulation of radioactive GTP-gamma-S binding at recombinant receptors. The series is classed as biochemical. The method, then: (§1) Activity at the human H1 receptor is determined by the inhibition of agonist-induced stimulation of radioactive GTP-gamma-S binding at recombinant receptors. […] Affinity for the human H4 receptor is determined by binding competition.

The target in series [2] is human H4 receptor (Homo sapiens, UniProt Q9H3N8). Kind of series: hH4 binding competition. On the procedure: as §1
Series [3] concerns the target hERG channel (Homo sapiens, UniProt Q12809). The series is described as follows: hERG competition binding. From the text: Compounds that are antagonists or inverse agonists at the human H1 receptor are often found to bind to the hERG channel, giving rise to arrhythmia possibly leading to sudden cardiac arrest. This led to the withdrawal of several medicines from the clinics. This parameter has thus been evaluated for the compounds of the present application.
The discriminative recognition of hERG channel by the eutomer versus the distomer is shown in the table below where the reported values are the inhibition constant determined by competition binding: […]

Series [4] can be described thus: Bioavailability / lung exposure after per os administration to mice. The series is classed as in vivo.
A short description of series [5]: Brain exposure: exposure over 8 hours in brain and plasma after per os administration to mice. The format is in vivo. Particulars: for Kp: mouse, brain/plasma, oral, examples of the present invention, read-out: ratio of the exposure in brain over the one in plasma. On the procedure:
Compounds that are acting as […] or inverse agonists on the histamine H1 receptor should not enter the brain. This would lead to unwanted side effects such as sedation and weight gain. The efficiency for entering into the brain may be assessed by administrating the compound per os to mice and measuring the exposure over 8 hours in the brain and in the plasma. The result may be expressed by the ratio of the exposure in brain over the one in plasma.

For series [6] the following is noted: allergic conjunctivitis; Nakano Y et al. Eur J Pharmacol 2009; cited from earlier work.
[7] abbreviates: eutomers of the invention and their distomers.
[8] abbreviates: comparative compounds of WO 2012/041860, eutomer and distomer.

pKi: −log10 of the molar value. Where two headings read alike, the source gives them in different places.

We go through 25 molecules from patent publication US12134608B2, “Benzimidazole derivatives as dual histamine H1 and histamine H4 receptor ligands” (BIOPROJET, priority 2017, dated 2024).

Sequence of human H1 receptor (P35367 whole entry): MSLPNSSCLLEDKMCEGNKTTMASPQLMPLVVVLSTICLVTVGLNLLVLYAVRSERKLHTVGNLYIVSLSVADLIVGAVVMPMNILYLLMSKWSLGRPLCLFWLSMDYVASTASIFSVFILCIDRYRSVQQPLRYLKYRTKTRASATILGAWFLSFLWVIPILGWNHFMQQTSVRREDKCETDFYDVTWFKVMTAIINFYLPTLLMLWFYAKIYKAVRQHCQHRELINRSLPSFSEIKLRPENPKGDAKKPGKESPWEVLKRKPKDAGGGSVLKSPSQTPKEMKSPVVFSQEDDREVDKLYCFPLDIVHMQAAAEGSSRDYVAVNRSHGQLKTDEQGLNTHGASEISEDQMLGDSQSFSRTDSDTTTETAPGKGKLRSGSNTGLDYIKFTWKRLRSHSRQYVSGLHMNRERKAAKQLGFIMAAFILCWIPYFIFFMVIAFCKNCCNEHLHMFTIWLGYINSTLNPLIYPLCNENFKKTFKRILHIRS
Sequence of human H4 receptor (Q9H3N8 whole entry): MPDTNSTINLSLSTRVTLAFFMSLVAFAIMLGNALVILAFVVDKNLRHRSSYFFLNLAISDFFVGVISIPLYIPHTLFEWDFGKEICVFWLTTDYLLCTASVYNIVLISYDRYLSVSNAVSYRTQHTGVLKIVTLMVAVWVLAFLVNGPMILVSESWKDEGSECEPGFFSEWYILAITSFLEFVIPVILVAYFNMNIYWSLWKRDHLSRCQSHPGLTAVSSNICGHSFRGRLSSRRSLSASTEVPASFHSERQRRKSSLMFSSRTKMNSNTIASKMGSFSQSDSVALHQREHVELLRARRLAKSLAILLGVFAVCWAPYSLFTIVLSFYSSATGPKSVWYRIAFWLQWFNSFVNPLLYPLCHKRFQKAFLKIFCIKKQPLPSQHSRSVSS
Sequence of hERG channel (Q12809 whole entry): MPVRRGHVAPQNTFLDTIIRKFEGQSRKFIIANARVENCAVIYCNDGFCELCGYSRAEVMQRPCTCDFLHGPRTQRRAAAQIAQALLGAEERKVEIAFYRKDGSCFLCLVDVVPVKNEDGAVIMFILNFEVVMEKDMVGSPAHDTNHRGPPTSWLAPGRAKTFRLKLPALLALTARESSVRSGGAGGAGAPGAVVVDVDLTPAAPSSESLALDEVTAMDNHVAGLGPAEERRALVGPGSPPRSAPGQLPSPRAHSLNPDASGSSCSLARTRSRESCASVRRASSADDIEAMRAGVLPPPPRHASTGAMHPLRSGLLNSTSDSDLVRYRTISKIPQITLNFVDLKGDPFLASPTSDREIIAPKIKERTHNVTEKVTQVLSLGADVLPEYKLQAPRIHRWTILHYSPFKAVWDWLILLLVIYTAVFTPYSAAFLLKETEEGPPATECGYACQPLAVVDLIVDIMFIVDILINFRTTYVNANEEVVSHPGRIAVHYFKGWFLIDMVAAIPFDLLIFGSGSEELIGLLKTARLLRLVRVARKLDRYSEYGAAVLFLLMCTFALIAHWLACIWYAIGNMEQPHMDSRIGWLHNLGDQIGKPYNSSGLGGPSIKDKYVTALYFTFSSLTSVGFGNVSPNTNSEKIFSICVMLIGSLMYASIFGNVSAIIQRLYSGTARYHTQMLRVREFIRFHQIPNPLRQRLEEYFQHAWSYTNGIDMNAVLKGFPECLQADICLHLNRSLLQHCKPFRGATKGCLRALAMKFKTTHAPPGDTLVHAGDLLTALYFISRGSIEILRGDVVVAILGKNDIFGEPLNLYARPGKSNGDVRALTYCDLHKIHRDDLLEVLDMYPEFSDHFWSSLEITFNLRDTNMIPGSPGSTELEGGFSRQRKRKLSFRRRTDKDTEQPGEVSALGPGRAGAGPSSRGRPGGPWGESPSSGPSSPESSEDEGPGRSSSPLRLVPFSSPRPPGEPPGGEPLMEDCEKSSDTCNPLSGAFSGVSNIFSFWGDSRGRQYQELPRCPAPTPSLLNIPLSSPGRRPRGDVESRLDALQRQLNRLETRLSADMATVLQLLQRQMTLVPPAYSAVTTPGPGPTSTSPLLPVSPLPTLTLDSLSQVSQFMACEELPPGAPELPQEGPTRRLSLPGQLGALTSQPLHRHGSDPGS

Take `CN1CCC(OC(c2nc3ccccc3[nH]2)c2cccc(F)c2O)CC1` (single isomer, unassigned) [Example 1 Distomer A]: the Kb in series [1] was 225 nM. For the same molecule, the pKi in series [2] is 6.10; in series [3] (setting [7]), 5.38.

As to `CN1CCC(OC(c2nc3ccccc3[nH]2)c2cccc(F)c2O)CC1` (single isomer, unassigned) [Example 1], in series [4] (10 mg/kg), the “lung AUC” value was 20486 ng·h/g. For the same molecule, the Kp in series [5] (10 mg/kg) is 0.2.

Turning to `CN1CCC(OC(c2nc3ccc(Cl)c(F)c3[nH]2)c2ccccc2O)CC1` (single isomer, unassigned) [Example 3 Distomer A], the Kb in series [1] came to 156 nM. The results for the negative logarithm of the Ki (pKi) in series [2] and in series [3] (setting [7]) were 7.38 and 6.11, respectively.

Turning to `CN1CCC(OC(c2nc3ccc(Cl)c(F)c3[nH]2)c2ccccc2O)CC1` (single isomer, unassigned) [Example 3], the Kb in series [1] turned out to be 1.43 nM. Moreover, the “lung AUC” value in series [4] (1 mg/kg) turned out to be 10037 ng·h/g. In addition, the Kp in series [5] (1 mg/kg) was determined as 0. Besides, the pKi in series [2] was 9.21; in series [3] (setting [7]), 5.59.

For `Cc1cccc2nc(C(OC3CCN(C)CC3)c3ccccc3O)[nH]c12` (single isomer, unassigned) [Example 4 Distomer A], in series [1], the Kb turned out to be 133 nM. Also, the results for the pKi in series [2] and in series [3] (setting [7]) were 6.31 and 5.56, respectively.

Turning to `Cc1cccc2nc(C(OC3CCN(C)CC3)c3ccccc3O)[nH]c12` (single isomer, unassigned) [Example 4], in series [1], the Kb amounted to 0.165 nM. Besides, in series [4] (1 mg/kg), the “lung AUC” value turned out to be 1144 ng·h/g. In addition, in series [5] (1 mg/kg), the Kp stood at 0.3. Also, the pKi in series [2] was 8.54; in series [3] (setting [7]), 4.67.

`CN1CCC(OC(c2nc3cc(F)ccc3[nH]2)c2ccccc2O)CC1` (single isomer, unassigned) [Example 5 Distomer A]: the Kb in series [1] stood at 97.5 nM. Also, the pKi in series [2] was 6.60; in series [3] (setting [7]) it was 6.19.

Consider `CN1CCC(OC(c2nc3cc(F)ccc3[nH]2)c2ccccc2O)CC1` (single isomer, unassigned) [Example 5], for which, in series [1], the Kb was found to be 1.65 nM. The “lung AUC” value in series [4] (1 mg/kg) came out at 1264 ng·h/g. In addition, the pKi was 9.04 in series [2] and 5.49 in series [3] (setting [7]).

For `CN1CCC(OC(c2nc3cccc(Cl)c3[nH]2)c2ccccc2O)CC1` (single isomer, unassigned) [Example 6 Distomer A], the Kb in series [1] stood at 598 nM. For the same molecule, the pKi in series [2] was 6.32; in series [3] (setting [7]), 5.83.

With `CN1CCC(OC(c2nc3cccc(Cl)c3[nH]2)c2ccccc2O)CC1` (single isomer, unassigned) [Example 6], the Kb in series [1] worked out at 1.25 nM. In series [4] (1 mg/kg), the “lung AUC” value worked out at 6316 ng·h/g. Also, in series [5] (1 mg/kg), the Kp was determined as 0. The negative logarithm of the Ki (pKi) is 8.47 in series [2] and 4.90 in series [3] (setting [7]).

For `Cc1c(Cl)ccc2nc(C(OC3CCN(C)CC3)c3ccccc3O)[nH]c12` (single isomer, unassigned) [Example 7 Distomer A], the Kb in series [1] turned out to be 132 nM. Also, the negative-log Ki (pKi) in series [2] was 7.14; in series [3] (setting [7]), 6.23.

For `Cc1c(Cl)ccc2nc(C(OC3CCN(C)CC3)c3ccccc3O)[nH]c12` (single isomer, unassigned) [Example 7], in series [1], the Kb was found to be 1.87 nM. In series [4] (1 mg/kg), the “lung AUC” value worked out at 1169 ng·h/g. The negative-log Ki (pKi) was 9.14 in series [2] and 5.52 in series [3] (setting [7]).

`Cc1ccc(C(OC2CCN(C)CC2)c2nc3ccc(F)cc3[nH]2)c(O)c1F` (single isomer, unassigned) [drawing 27 Distomer, reference compound] had a pKi in series [3] (setting [8]) of 6.10.

Take `Cc1ccc(C(OC2CCN(C)CC2)c2nc3ccc(F)cc3[nH]2)c(O)c1F` (single isomer, unassigned) [drawing 27 Eutomer, reference compound]: in series [3] (setting [8]), the negative logarithm of the Ki (pKi) was 6.66.

In the case of `CN1CCC(O[C@H](c2nc3ccccc3[nH]2)c2cccc(F)c2O)CC1` [Example 1, (S)-2-[(1H-benzimidazol-2-yl)(1-methylpiperidin-4-yloxy)methyl]-6-fluorophenol], the Kb in series [1] came out at 2.18 nM. In addition, the negative-log Ki (pKi) in series [2] was 8.30; in series [3] (setting [7]), 4.94.

For `Cc1ccc(C(OC2CCN(C)CC2)c2nc3ccccc3[nH]2)c(F)c1` (stereo not shown) [drawing 24 Distomer, reference compound], the pKi in series [3] (setting [8]) was 6.44.

Molecule `Cc1ccc(C(OC2CCN(C)CC2)c2nc3ccccc3[nH]2)c(F)c1` (stereo not shown) [drawing 24 Eutomer, reference compound] gave a pKi in series [3] (setting [8]) of 6.30. The pKi values of the last two molecules are within 0.2 log units of each other.

On to `Cc1ccc(C(OC2CCN(C)CC2)c2nc3ccccc3[nH]2)c(O)c1F` (stereo not shown) [drawing 25 Distomer, reference compound], for which the pKi in series [3] (setting [8]) is 5.24. This pKi lies 1.06 log units lower than the previous one.

Consider `Cc1ccc(C(OC2CCN(C)CC2)c2nc3ccccc3[nH]2)c(O)c1F` (stereo not shown) [drawing 25 Eutomer, reference compound], for which the negative logarithm of the Ki (pKi) in series [3] (setting [8]) is 5.51.

`CN1CCC(OC(c2nc3ccccc3[nH]2)c2ccc(F)c(F)c2O)CC1` (stereo not shown) [drawing 26 Distomer, reference compound] gave a negative logarithm of the Ki (pKi) in series [3] (setting [8]) of 4.49.

As to `CN1CCC(OC(c2nc3ccccc3[nH]2)c2ccc(F)c(F)c2O)CC1` (stereo not shown) [drawing 26 Eutomer, reference compound], the pKi in series [3] (setting [8]) is 4.74.

In turn, `CN1CCC(OC(c2nc3ccccc3[nH]2)c2ccc(Cl)c(F)c2O)CC1` (stereo not shown) [drawing 28 Distomer, reference compound] gave a pKi in series [3] (setting [8]) of 5.07.

In series [3] (setting [8]), `CN1CCC(OC(c2nc3ccccc3[nH]2)c2ccc(Cl)c(F)c2O)CC1` (stereo not shown) [drawing 28 Eutomer, reference compound] gave a negative-log Ki (pKi) of 5.18.

For `C[C@@H]1CN([C@H]2CC[C@](C#N)(c3ccc(F)cc3)CC2)CC[C@]1(C(=O)O)c1ccccc1` [levocabastine], the eye scratching behavior entry in series [6] is “inhibited eye scratching behavior”.

For “(S)-2-[(1H-benzimidazol-2-yl)(1-methylpiperidin-4-yloxy)methyl]-6-fluorophenol [Example 1]”, in series [5] (10 mg/kg, comparative compounds, example numbers of WO2012/041860), the “ratio of the exposure in brain over the one in plasma” value stood at 13.
